We go through seven compounds from article PMC4901321, “Screening of saponins and sapogenins from Medicago species as potential PPARγ agonists and X-ray structure of the complex PPARγ/caulophyllogenin” (Scientific Reports, 2016).

Data set [1] deals with T1, PPARγ LBD (Homo sapiens, UniProt P37231).
T1 construct: PPARγ LBD was expressed as N-terminal His-tagged proteins using a pET28 vector; His tag (N, cleaved yes); made in house; host or cells: E. coli BL21 DE3
T1 sequence (P37231 238-503 limits assumed): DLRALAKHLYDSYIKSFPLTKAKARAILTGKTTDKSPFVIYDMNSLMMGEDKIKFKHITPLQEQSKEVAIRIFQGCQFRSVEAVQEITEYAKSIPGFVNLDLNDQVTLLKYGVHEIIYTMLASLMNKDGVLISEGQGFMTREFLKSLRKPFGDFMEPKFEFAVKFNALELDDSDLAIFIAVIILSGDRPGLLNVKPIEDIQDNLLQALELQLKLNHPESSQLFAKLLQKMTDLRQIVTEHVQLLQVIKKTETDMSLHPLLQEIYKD
The experiment in a line: Surface plasmon resonance, PPARγ receptor/saponin or sapogenin interactions. It is filed as binding. The settings on record: for affinity to the nuclear receptor: in words; for Kd: koff/kon. A general note: SPR reads the build-up and loss of mass on a sensor chip optically.
Experimental: PPARγ LBD was expressed as N-terminal His-tagged proteins using a pET28 vector and then purified as previously described[40]. Briefly, freshly transformed E. coli BL21 DE3 were grown in LB medium with 30 μg of kanamycin/mL at 310 K to an OD of 0.6. […] Cells were harvested and resuspended in a 20 mL/liter culture of Buffer A (20 mM Tris, 150 mM NaCl, 10% glycerol, 1 mM Tris 2-carboxyethylphosphine HCl (TCEP), pH 8) in the presence of protease inhibitors (Complete Mini EDTA-free; Roche Applied Science). Cells were sonicated, and the soluble fraction was isolated by centrifugation (35,000 × g for 45 min). The supernatant was loaded onto a Ni^2+ -nitrilotriacetic acid column (GE Healthcare) and eluted with a gradient of imidazole 0–300 mM in Buffer A (batch method). The pure protein was identified by SDS PAGE. The protein was then dialyzed over buffer A to remove imidazole, and it was cleaved with thrombin protease (GE Healthcare) (10 units/mg) at room temperature for 2 h. The digested mixture was reloaded onto a Ni^2+ -nitriloacetic acid column to remove His tag and the undigested protein. The flow-through was loaded onto a Q-Sepharose HP column (GE Healthcare) and eluted with a gradient of NaCl 0–500 mM in Buffer B (20 mM Tris, 10% glycerol, 1 mM TCEP, pH 8) with a BioLogic DuoFlow FPLC system (Bio-Rad Laboratories, Italy). Finally, the protein was purified by gel-filtration chromatography on a HiLoad Superdex 75 column (GE Healthcare) and eluted with Buffer C (20 mM Tris, 1 mM TCEP, 0.5 mM EDTA, pH 8). The protein was then concentrated at 8 mg/mL using Amicon centrifugal concentrators with a 10 kDa cutoff membrane (Millipore, USA). Part of the protein was used for SPR experiments.
Surface plasmon resonance analyses were performed by using Pioneer AE optical biosensor equipped with COOH5 chips (SensiQ). PPARγ surfaces were prepared by using standard amine-coupling procedures[45] and HBS (Hepes-buffered saline: 20 mM Hepes, 150 mM sodium chloride, 0.005% P20, pH 7.4) as the running buffer. Flow cells were activated for 7 min by injecting 140 μL of 50 mM N-hydroxysuccinimide (NHS):200 mM ethyl-3(3-dimethylamino) propyl carbodiimide (EDC). Fifty μL of a 0.25 mg/mL PPARγ solution (in 10 mM sodium acetate, pH 5.0) were injected for 5 min at 10 μL/min on channels 1 and 3 (channel 2 was used as ref. [3], for a duplicate experiment), followed by a 70-μL injection of ethanolamine to block any remaining activated groups on the surface. […] The screening of the analytes (saponins and sapogenins) was performed using HBS without P20, with 1 mM DTT and 2% DMSO. To collect detailed kinetic data the OneStep[46][47][48] protocol was used, injecting the analytes at a flow rate of 50 μL/min and at the concentration of 100 μM (50 μM for 14 and 15) over the three channels at 20 °C (association phase of 180 s). Five buffer blanks were injected for double referencing . […] A DMSO calibration plot was constructed (buffer sample containing 1–3% (vol/vol) DMSO) to correct for bulk refractive index shifts[49]. Data were collected at a rate of 20 Hz. All sensorgrams were processed by using double referencing[50]. First, the responses from the reference surface (channel 2) were subtracted from the binding responses collected over the reaction surfaces to correct for bulk refractive index changes.

In the next data set the test system is HepG2 cells. The experiment in a line: MTT assay for cell viability. Type of data set: cell-based, human. The settings on record: for IC50: read-out: IC50 (concentration that reduces the cell viability by 50%). On the technique in general: Formazan colour is commonly taken as a measure of viable cells.
The target in data set [2] is T2, PPARγ (Homo sapiens, UniProt P37231).
T2 construct: expressed in transfected cells; host or cells: HepG2
T2 sequence (P37231 238-503 limits assumed): T1 sequence (P37231 238-503 limits assumed)
As to the kind of experiment: Displacement experiments against rosiglitazone (antagonist behavior, transactivation). Type of data set: cell-based. The protocol: The antagonist behavior of the above compounds was also evaluated in displacement experiments against rosiglitazone.
For transactivation assays, 1·10^5 cells per well were seeded in a 96-well plate and transfected after 24 h with K2 Transfection System (Biontex Laboratories GmbH), according to the manufacturer’s protocol using 0.20 μg/well of DNA. Cells were transfected with expression plasmids encoding the fusion protein Gal4-PPARα-LBD or Gal4-PPARγ-LBD, pGal5TKpGL3, and pCMVβgal to normalize the transfection efficacy. 24 h after transfection, medium was replaced with fresh complete growth medium supplemented with test compounds (ranging from 200 nM to 100 μM), reference compounds Wy-14,643 (10 μM) and rosiglitazone (2 μM), or DMSO 0.1%. After further 24 h of incubation cells were lysed and luciferase activity in cell extracts was determined by a luminometer (VICTOR^3 V Multilabel Plate Reader, PerkinElmer, Monza, Italy) and normalized for β-galactosidase activity. Fold induction activity was calculated and plotted using GraphPad Prism5 software.

The test system of data set [3] is PPARγ. Set-up: method as in PMID 25487878. Particulars: cited from earlier work.
Data set [4] deals with T1, PPARγ LBD. The experiment in a line: Isothermal titration calorimetry. It is filed as binding. On the procedure: ITC experiments were performed at 22 °C by using a ITC200 microcalorimeter (MicroCal, Inc., Northampton, MA, USA). […] DMSO was added to the protein solution at the same percentage of the ligand solution (2%) for the experiment with SAP19. The protein solution (50 μM) was placed in the sample cell, and ligand solution (500 μM) was loaded into the syringe injector (PPARγ 40 μM and the ligand 400 μM for the experiment with 13-HODE) . The titrations involved 19 injections of 2 μL each at 150 s intervals. A reference titration of ligand into buffer was used to correct for heats of dilution. Thermodynamic data was processed with Origin 7.0 software (MicroCal). Fitting the isotherms with one-site binding model yealded the values of the association constant (Ka).
On the technique in general: In ITC the heat of successive injections is recorded.

[5] abbreviates: SPR, 20 °C, 1:1 model, for 2:1 model fits the first value (high affinity site), error in parentheses.
Where [6] appears, read: ITC fit, OneSites model, Supplementary Fig. S3.

Entries after “also recorded” stand apart in the source; their conditions may differ. Where two headings read alike, the source gives them in different places. Bounds are passed on as bounds.

Experimental for HepG2 cells: Human hepatocellular liver carcinoma cell line HepG2 (Interlab Cell Line Collection, Genoa, Italy) was cultured in Minimum Essential Medium (MEM) containing 10% heat-inactivated fetal bovine serum, 100 U·mL^−1 of penicillin G, and 100 μg·mL^−1 of streptomycin sulfate at 37 °C in a humidified atmosphere of 5% CO2.
Cell viability was measured using the MTT assay. HepG2 cells were seeded at a density of 1·10^5 cells/well into 96-well flat bottom culture plates containing test compounds (ranging from 200 nM to 100 μM final concentration), in a final volume of 100 μL. […] Control wells lacked inhibitor. After 24 h of incubation at 37 °C in a 5% CO2 atmosphere, 3-(4,5-dimethylthiazole-2-yl)-2,5-diphenyltetrazolium bromide (MTT, 5 mg/mL stock solution) was added to a final concentration of 0.5 mg/mL. To control for background absorbance, six wells of cells were lysed by adding Triton X-100 (0.1% v/v final concentration) immediately prior to the addition of MTT reagent. After incubation under the same conditions for further 3–4 h, the culture medium was removed, the insoluble product dissolved by the addition of 100 μL of solvent (50% DMSO, 50% EtOH v/v), and the absorbance of the well was measured at 570 nm using a PERKIN–ELMER Victor V^3 plate reader. Cell growth inhibition was then calculated using the following Equation,
where V% is the percentage of cell viability, A is the absorbance of treated cultures, Ab is the absorbance of background control, and Ac is the absorbance of control cultures.

On to `CC1(C)C[C@@H](O)[C@]2(C)CC[C@]3(C)C(=CC[C@@H]4[C@@]5(C)CC[C@H](O)[C@](C)(CO)[C@@H]5CC[C@]43C)[C@@H]2C1` [SAP24, soyasapogenol B], for which the “affinity to the nuclear receptor” value at PPARγ LBD [1] (SPR) is on record as “didn’t show affinity”.

Regarding echinocystic acid [SAP18], at PPARγ LBD [1] (SPR, 2:1 molecular interaction model, second value in cell (second site)), the Koff is given as 0.715(0.002) s^−1. On PPARγ LBD [1] (setting [5]), the Koff worked out at 0.0014 s⁻¹ and the Kon was 144.8(0.2) M^−1s^−1. Further, the IC50 in the data set with HepG2 cells (HepG2, MTT, 24 h) worked out at 4.1 ± 0.4 µM. Also, the “reduction of the effects of rosiglitazone” value on PPARγ [2] (at 5 μM) was found to be 40%. Further, on PPARγ [2] (in words), the “antagonist behavior towards PPARγ” value is “antagonist activity”.

Consider `C[C@@H]1O[C@@H](O[C@H]2[C@H](O[C@H]3[C@H](O[C@H]4CC[C@@]5(C)[C@@H](CC[C@]6(C)[C@@H]5CC=C5[C@@H]7CC(C)(C)C[C@@H](O)[C@]7(C)CC[C@]56C)[C@@]4(C)CO)O[C@H](C(=O)O)[C@@H](O)[C@@H]3O)O[C@H](CO)[C@H](O)[C@@H]2O)[C@H](O)[C@H](O)[C@H]1O` [SAP17, soyasaponin I], for which the Koff on PPARγ LBD [1] worked out at 1.68 s⁻¹. Moreover, the affinity at PPARγ LBD [1] (Kd, SPR, 1:1 model, for 2:1 model fits the first value (high affinity site)), expressed as Kd, was 32.5 µM. Also, the cytotoxicity result in the data set on HepG2 cells (HepG2, concentrations up to 100 μM) is “did not show cytotoxicity; also recorded: did not show any cytotoxic activity”. For the same compound, the IC50 in the data set with HepG2 cells (Homo sapiens, HepG2, 24 h) was over 100 µM.

Regarding `CC1(C)CC[C@]2(C(=O)O)CC[C@]3(C)C(=CCC4[C@@]5(C)C[C@H](O)[C@H](O)[C@@](C)(CO)C5CC[C@]43C)C2C1` (stereo partly drawn) [SAP21, bayogenin], the “affinity to the nuclear receptor” value on PPARγ LBD [1] (SPR) is “didn’t show affinity”.

As for `CC(C)=CCC[C@](C)(O)[C@H]1CC[C@]2(C)[C@@H]1[C@H](O)C[C@@H]1[C@@]3(C)CC[C@H](O)C(C)(C)[C@@H]3[C@@H](O)C[C@]12C` [protopanaxatriol], the “activity towards PPARγ” value in the data set on PPARγ [3] is reported as “antagonist activity”.

As for `CC1(C)CC[C@]2(C(=O)O)CC[C@]3(C)C(=CC[C@@H]4[C@@]5(C)CC[C@H](O)[C@@](C)(CO)[C@@H]5CC[C@]43C)[C@@H]2C1` [SAP20, hederagenin], the “affinity to the nuclear receptor” value on PPARγ LBD [1] (SPR) is reported as “didn’t show affinity”. In addition, on PPARγ LBD [1] (SPR, 1:1 model, for 2:1 model fits the first value (high affinity site), read-out: Kd), the Kd was over 1000 µM.

With `CCCCC[C@H](O)/C=C/C=C\CCCCCCCC(=O)O` [13-(S)-HODE], at PPARγ LBD [4] (setting [6]), the “K (association constant)” value was found to be 106000 M⁻¹, the ΔH is -2.206 kcal/mol and the ΔS came out at 15.5 cal/mol/deg. Besides, on PPARγ LBD [4] (ITC, 22 °C), the ΔH is -2.21 kcal/mol and the “−TΔS” value is -4.56 kcal/mol. Besides, the Kd at PPARγ LBD [4] (ITC, 22 °C, one-site model) worked out at 9.4 µM.

A word on the Kd: it is a measure of binding affinity in units of concentration.
